The record followed here is US5137811A, “Method for diagnosing periodontal diseases with a substrate specific for aminopeptidase activity of periodontopathic bacteria” (Sunstar Kabushiki Kaisha, priority 1986, dated 1992).

Where a SMILES comes first, the peptide text is derived from it. The star is where a group is joined. pNA = O=[N+]([O-])c1ccc(N*)cc1

For experiment [1], the system named is periodontopathic bacteria specific aminopeptidase activity. Kind of experiment: Hydrolytic activity of saliva supernatant, substrates alone or in combination (Experiment 9). The class given is biochemical. To be noted: 37° C. for 4 hours, Table 9. The method, then: (§1) A saliva mixture was collected from a group consisting of ten healthy subjects and centrifuged to obtain a supernatant. Likewise, centrifuged supernatants were obtained from a group of ten subjects with adult periodontitis and a group of four localized juvenile periodontitis. The supernatant was used as a specimen and its hydrolytic activity was determined according to the same manner as described in Experiment 4 except that the reaction was carried out at 37° C. for 4 hours. As the substrates, there were used N-carbobenzoxy-valyl-glycyl-arginine-p-nitrophenol (CxVGR-pNP), N-carbobenzoxy-valyl-glycylarginine-4-methoxy-2-naphthylamide (CxVGR-4NA) and N-carbobenzoxy-valyl-glycyl-arginine-β-naphthylamide (CxVGR-βNA). Color was developed by using lN sodium hydroxide for CxVGR-pNP and Fast Blue BB for CxVGR-4NA and CxVGR-βNA.
According to the same manner as described in Experiment 7, hydrolytic activity was tested by using N-carbobenzoxy-valyl-glycyl-arginine-β-naphthylamide (CxVGR-βNA), N-benzoyl-arginyl-glycyl-phenylalanyl-proline-β-naphthylamide (BzRGFP-βNA), N-carbobenzoxy-valyl-glycylarginine-p-nitrophenol (CxVGR-pNP) and N-benzoyl-arginylglycyl-phenylalanyl-proline-p-nitrophenol (BzRGFP-pNP) alone or in combination as the substrates.

The test system is the same in experiment [2]. Kind of experiment: Hydrolytic activity of saliva supernatant (Experiment 7). Type of experiment: biochemical. Conditions: 37° C. for 4 hours, Table 7. As for the experimental part: Specimens of gingival crevicular fluid were collected with paper points from five subjects who were considered to be healthy from their clinical state, six subjects with gingivitis and six subjects with periodontitis. Each specimen was dispersed in Ringer's solution (1.5 ml), and the relative amount of spirochete to total bacteria: [formula] was determined with a phase contrast microscope. Further, the Ringer's solution (0.3 ml) was tested for hydrolytic activity using the substrate solution prepared in the same manner as described in Experiment 1. As substrates, there were used compounds of the formula [1], i.e., N-benzoylvalyl-glycyl-arginine-β-naphthylamide (BzVGR) and N-carbobenzoxy-valyl-glycyl-arginine-β-naphthylamide (CxVGR) were used.
as §1

For experiment [3] the test system is unchanged. Kind of experiment: Hydrolytic activity of saliva supernatant (Experiment 8). Type of experiment: biochemical. To be noted: 37° C. for 4 hours, Table 8. As for the experimental part: as §1
According to the same manner as described in Experiment 7, hydrolytic activity was tested by using lysylproline-p-nitroanilide (KP-pNA), lysyl-proline-4-methoxy-2-naphthylamide (KP-4NA) and lysyl-proline-β-naphthylamide (KP-βNA)as the substrates. Color was developed by using lN sodium hydroxide for KP-pNA and Fast Blue BB for KP-4-NA and KP-βNA.

The next experiment deals with Actinomyces israelli. Kind of experiment: Hydrolytic activity of cell suspension on aminopeptidase substrates (Experiment 2). The class given is cell-based. To be noted: two strains, Table 2. As for the experimental part:
(§2) The strains of Treponema were anaerobically cultivated using TYGVS media at 37° C. for 7 days, while other bacterial strains were cultivated using brain heart infusion broth at 37° C. for 48 to 72 hours. Each culture was diluted to obtain a bacterial cell suspension, the absorption at 660 nm of which was 1.0.
(§3) Substrate compounds for aminopeptidase enzyme having various color developing groups derived from β-naphthylamine were dissolved in 0.1M Tris-HCl buffer (pH 7.0) at the concentration of 0.2 mM to obtain substrate solutions.
(§4) To the substrate solution (1.5 ml) was added the above cell suspension (0.3 ml) and reacted at 37° C. for 60 minutes. After completion of the reaction, a coloring reagent [prepared by dissolving diazonium salt of Garnet GBC in 1M acetate buffer (containing 10% Tween 20, pH: 4.2) at the concentration of 0.5 mg/ml] was added and, after 15 minutes, the absorption at 525 nm was determined with a spectrophotometer.
(§5) On the basis of the average amount of released β-naphthylamine in each strain, the hydrolytic activity was expressed as follows: […]
(§6) According to the same manner as described in Experiment 1, periodontopathic bacteria specific aminopeptidase activity was tested by using four strains of Treponema denticola, five strains of B. gingivalis, three strains of B. intermedius, two strains of B. melaninogenicus, two strains of Actinomyces israelli, four strains of Actinobacillus actinomycetemcomitans and three strains of Fusobacterium nucleatum. Abbreviations used in Table 2 mean the following substrate compounds.

Experiment [4] concerns Actinobacillus actinomycetemcomitans. The description is as above. To be noted: four strains, Table 2. The class given is cell-based. As for the experimental part:
as §2, §3, §4, §5, §6

The next experiment relates to B. denticola. The experiment is described as above. Type of experiment: cell-based. To be noted: Table 2. The method, then: as §2, §3, §4, §5, §6
The test system of the next experiment is B. intermedius. Described as above. Type of experiment: cell-based. Conditions: three strains, Table 2. The method, then: as §2, §3, §4, §5, §6
The next experiment deals with B. melaninogenicus. The description is as above. The class given is cell-based. Conditions: two strains, Table 2. The method, then:
as §2, §3, §4, §5, §6

The subject of another experiment is B. gingivalis. The description is as above. Type of experiment: cell-based. To be noted: five strains, Table 2. As for the experimental part: as §2, §3, §4, §5, §6
The next experiment relates to B. corporis. The experiment is described as above. The class given is cell-based. Conditions: Table 2. The method, then: as §2, §3, §4, §5, §6
Experiment [5] relates to Treponema denticola. The description is as above. Type of experiment: cell-based. Conditions: four strains, Table 2. The method, then: as §2, §3, §4, §5, §6
In experiment [6] the test system is Fusobacterium nucleatum. The description is as above. To be noted: three strains, Table 2. Type of experiment: cell-based. The method, then: as §2, §3, §4, §5, §6
Experiment [7] deals with Actinobacillus actinomycetemcomitans. Kind of experiment: Hydrolytic activity of oral anaerobe cell suspension on aminopeptidase substrates (Experiment 1). Type of experiment: cell-based. Conditions: four strains, substrate 0.2 mM, pH 7.0, 37° C., 60 minutes, Table 1. The method, then:
(§7) Oral anaerobes, i.e., four strains of Treponema denticola, five strains of B. gingivalis, four strains of Actinobacillus actinomycetemcomitans, four strains of Capnocytophaga sp. and three strains of Fusobacterium nucleatum were tested for hydrolytic activity to the substrate of aminopeptidase enzyme as follows.
as §2, §3, §4, §5

The next experiment relates to Capnocytophaga sp. The description is as above. The class given is cell-based. Conditions: four strains, substrate 0.2 mM, pH 7.0, 37° C., 60 minutes, Table 1. As for the experimental part: as §7, §2, §3, §4, §5
Experiment [8] deals with Treponema denticola. The description is as above. The class given is cell-based. To be noted: four strains, substrate 0.2 mM, pH 7.0, 37° C., 60 minutes, Table 1. The method, then:
as §7, §2, §3, §4, §5

In experiment [9] the test system is Fusobacterium nucleatum. The experiment is described as above. Type of experiment: cell-based. To be noted: three strains, substrate 0.2 mM, pH 7.0, 37° C., 60 minutes, Table 1. The method, then: as §7, §2, §3, §4, §5
The test system of another experiment is Bacteroides gingivalis. The experiment is described as above. The class given is cell-based. To be noted: five strains, substrate 0.2 mM, pH 7.0, 37° C., 60 minutes, Table 1. As for the experimental part:
as §7, §2, §3, §4, §5

Where [10] appears, read: Localized juvenile periodontitis subjects.

On to “N-benzoyl-arginylglycyl-phenylalanyl-proline-p-nitrophenol [BzRGFP-pNP]”, for which the hydrolytic activity was 25.6 ± 8.4 nmol/mL in experiment [1] (Adult Periodontitis subjects), 13.3 ± 4.9 nmol/mL in [1] (Healthy subjects) and 21.8 ± 7.8 nmol/mL in experiment [1] (setting [10]).
For the compound “N-carbobenzoxy-valyl-glycyl-arginine-p-nitrophenol [CxVGR-pNP]”, the hydrolytic activity in [1] (Adult Periodontitis subjects) worked out at 33.5 ± 11.5 nmol/mL; in experiment [1] (Healthy subjects), 14.0 ± 7.9 nmol/mL; in [1] (setting [10]), 28.8 ± 9.1 nmol/mL; in experiment [2] (Adult Periodontitis subjects) it was 34.0 ± 9.7 nmol/mL; in experiment [2] (Healthy subjects), 17.0 ± 11.4 nmol/mL; in experiment [2] (setting [10]), 32.5 ± 9.6 nmol/mL.
For the compound `NCCCC[C@H](N)C(=O)N1CCC[C@H]1C(=O)Nc1ccc([N+](=O)[O-])cc1` [KP-pNA, lysylproline-p-nitroanilide] (H-Lys-Pro-pNA), the hydrolytic activity in experiment [3] (Adult Periodontitis subjects) worked out at 34.3 ± 9.8 nmol/mL; in experiment [3] (Healthy subjects), 15.0 ± 9.4 nmol/mL; in experiment [3] (setting [10]), 31.5 ± 9.7 nmol/mL.
Turning to `COc1cc(NC(=O)[C@@H]2CCCN2C(=O)[C@@H](N)CCCCN)cc2ccccc12` [KP-4NA, lysyl-proline-4-methoxy-2-naphthylamide], the hydrolytic activity in experiment [3] (Adult Periodontitis subjects) was 35.5 ± 10.1 nmol/mL; in experiment [3] (Healthy subjects) it was 16.0 ± 10.8 nmol/mL; in [3] (setting [10]) it was 32.3 ± 8.9 nmol/mL.
Consider `COc1cc(NC(=O)[C@H](CCCNC(=N)N)NC(=O)CNC(=O)[C@@H](NC(=O)OCc2ccccc2)C(C)C)cc2ccccc12` [CxVGR-4NA, N-carbobenzoxy-valyl-glycylarginine-4-methoxy-2-naphthylamide], for which the values for the hydrolytic activity in experiment [2] (Adult Periodontitis subjects), in [2] (Healthy subjects) and in [2] (setting [10]) were 34.6 ± 8.9 nmol/mL, 18.0 ± 10.8 nmol/mL and 32.3 ± 8.9 nmol/mL, respectively.
Regarding `N=C(N)NCCC[C@H](N)C(=O)Nc1ccc2ccccc2c1` [R, arginine-β-naphthylamide, reference compound], the “hydrolytic activity (average amount of released β-naphthylamine)” value (in the experiment on Actinomyces israelli; in experiment [4]; in the experiment on B. denticola; with B. intermedius; in the experiment with B. melaninogenicus; with B. gingivalis) was “- (release amount<5 nmol/ml)” throughout. Further, the “hydrolytic activity (average amount of released β-naphthylamine)” value was “- (release amount<5 nmol/ml)” with B. corporis; “- (release amount<5 nmol/ml)” with Treponema denticola [5]; “- (release amount<5 nmol/ml)” in the experiment with Fusobacterium nucleatum [6]; “- (release amount<5 nmol/ml)” in experiment [7]; “+++ (release amount≥40 nmol/ml)” in the experiment on Capnocytophaga sp.; “- (release amount<5 nmol/ml)” in the experiment with Treponema denticola [8]. Also, the “hydrolytic activity (average amount of released β-naphthylamine)” value with Fusobacterium nucleatum [9] and in the experiment with Bacteroides gingivalis was “- (release amount<5 nmol/ml)” in each case.
